Results on 14 molecules are retold here after US20250129070A1, “BIFUNCTIONAL ANDROGEN RECEPTOR COMPOUNDS” (priority 2023, published 2025).

SMILES strings stand for the structures. Bounds are passed on as bounds.

For one test, the system named is AR / CBP ternary complex. In words: Ternary complex formation assay (sandwich ELISA, AR capture / CBP detection) in VCaP cell lysates. Format: cell-based. The following applies: 1.5 hours treatment, sandwich ELISA (AR capture, CBP or p300 detection). Put shortly:
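Anti-AR (AR 441)-coated plates capture AR from lysates of VCaP cells grown ≥3 days at 50K/well in 5% charcoal-stripped FBS, dosed with bifunctional for 1.5 h and lysed 30 min at 4 °C. Co-captured CBP/p300 is probed with rabbit mAb and HRP anti-rabbit, then QuantaRed fluorescence (570/585) is read at 0, 5 and 15 min.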

A further test has as its system VCaP cells. In words: VCaP growth inhibition assay. The following applies: 30 pM R1881, 9 days, CTG. Format: cell-based. Summed up: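 Growth read by CTG luminescence after 9-day exposure to compound (final 100 nM–10 fM, 1:5 steps) plus 30 pM R1881, in phenol red-free DMEM with 5% CSS. Cells pre-incubated 72 h before dosing; IC50 by nonlinear 4-parameter regression.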

As for `CC(=O)N1CCc2c(c(N3CCCc4cc(-c5cnn(C)c5)c(Cl)cc43)nn2C2CCN(CC3CCN(c4ncc(C(=O)NC5C(C)(C)C(Oc6ccc(C#N)c(Cl)c6)C5(C)C)cn4)CC3)CC2)C1` (stereo not shown) [Compound 25, 2-[4-[[4-[5-acetyl-3-[7-chloro-6-(1-methylpyrazol-4-yl)-3,4-dihydro-2H-quinolin-1-yl]-6,7-dihydro-4H-pyrazolo[4,3-c]pyridin-1-yl]-1-piperidyl]methyl]-1-piperidyl]-N-[3-(3-chloro-4-cyano-phenoxy)-2,2,4,4-tetramethyl-cyclobutyl]pyrimidine-5-carboxamide], the EC50 with AR / CBP ternary complex was 1 to 10 nM. The IC50 in the test with VCaP cells fell in the range of 0.1 to 1 nM.
For the molecule `CC(=O)N1CCc2c(c(N3CCCc4cc(-c5cnn(C)c5)c(C(F)F)cc43)nn2C2CCN(C3CC4(C3)CN(c3ncc(C(=O)NC5C(C)(C)C(Oc6ccc(C#N)c(Cl)c6)C5(C)C)cn3)C4)CC2)C1` (stereo not shown) [Compound 348, 2-[6-[4-[5-acetyl-3-[7-(difluoromethyl)-6-(1-methylpyrazol-4-yl)-3,4-dihydro-2H-quinolin-1-yl]-6,7-dihydro-4H-pyrazolo[4,3-c]pyridin-1-yl]-1-piperidyl]-2-azaspiro [3.3]heptan-2-yl]-N-[3-(3-chloro-4-cyano-phenoxy)-2,2,4,4-tetramethyl-cyclobutyl]pyrimidine-5-carboxamide], in the test on AR / CBP ternary complex, the EC50 is < 1 nM. The IC50 in the test on VCaP cells was ≤ 0.1 nM.
The corresponding values for `CC(=O)N1CCc2c(c(N3CCCc4cc(-c5cnn(C)c5)c(C(F)F)cc43)nn2C2CCN(CC3CCN(c4ncc(C(=O)NC5C(C)(C)C(Oc6ccc(C#N)c(Cl)c6)C5(C)C)cn4)CC3)C2)C1` (stereo not shown) [Compound 21, 2-[4-[[3-[5-acetyl-3-[7-(difluoromethyl)-6-(1-methylpyrazol-4-yl)-3,4-dihydro-2H-quinolin-1-yl]-6,7-dihydro-4H-pyrazolo[4,3-c]pyridin-1-yl]pyrrolidin-1-yl]methyl]-1-piperidyl]-N-[3-(3-chloro-4-cyano-phenoxy)-2,2,4,4-tetramethyl-cyclobutyl]pyrimidine-5-carboxamide] are 1 to 10 nM and 0.1 to 1 nM.
The corresponding values for `CC(=O)N1CCc2c(c(N3CCCc4cc(-c5cnn(C)c5)c(C(F)F)cc43)nn2C2CCC(C3CCC4(CC3)CN(c3ncc(C(=O)NC5C(C)(C)C(Oc6ccc(C#N)c(Cl)c6)C5(C)C)cn3)C4)CC2)C1` (stereo not shown) [Compound 379, 2-[7-[4-[5-acetyl-3-[7-(difluoromethyl)-6-(1-methylpyrazol-4-yl)-3,4-dihydro-2H-quinolin-1-yl]-6,7-dihydro-4H-pyrazolo[4,3-c]pyridin-1-yl]cyclohexyl]-2-azaspiro[3.5]nonan-2-yl]-N-[3-(3-chloro-4-cyano-phenoxy)-2,2,4,4-tetramethyl-cyclobutyl]pyrimidine-5-carboxamide] are 1 to 10 nM and 1 to 100 nM.
The corresponding values for `COc1cc(OC2C(C)(C)C(NC(=O)c3ccc(N4CCN(CC5CCC(n6nc(N7CCCc8cc(-c9cnn(C)c9)c(C(F)F)cc87)c7c6CCN(C(C)=O)C7)CC5)CC4)cc3)C2(C)C)ccc1C#N` (stereo not shown) [Compound 319, 4-[4-[[4-[5-acetyl-3-[7-(difluoromethyl)-6-(1-methylpyrazol-4-yl)-3,4-dihydro-2H-quinolin-1-yl]-6,7-dihydro-4H-pyrazolo[4,3-c]pyridin-1-yl]cyclohexyl]methyl]piperazin-1-yl]-N-[3-(4-cyano-3-methoxy-phenoxy)-2,2,4,4-tetramethyl-cyclobutyl]benzamide] are < 1 nM and ≤ 0.1 nM.
On to `CC(=O)N1CCc2c(c(N3CCCc4ccc(C(F)F)cc43)nn2C2CC3(C2)CN(C(=O)C2CC4(C2)CN(c2ncc(C(=O)NC5C(C)(C)C(Oc6ccc(C#N)c(Cl)c6)C5(C)C)cn2)C4)C3)C1` (stereo not shown) [Compound 218, 2-[6-[6-[5-acetyl-3-[7-(difluoromethyl)-3,4-dihydro-2H-quinolin-1-yl]-6,7-dihydro-4H-pyrazolo[4,3-c]pyridin-1-yl]-2-azaspiro[3.3]heptane-2-carbonyl]-2-azaspiro[3.3]heptan-2-yl]-N-[3-(3-chloro-4-cyano-phenoxy)-2,2,4,4-tetramethyl-cyclobutyl]pyrimidine-5-carboxamide], for which the EC50 with AR / CBP ternary complex is > 100 nM. The same molecule came in with an IC50 in the test on VCaP cells of 1 to 100 nM.
The corresponding values for `CC(=O)N1CCc2c(c(-c3cccc4cc(-c5cnn(CCC6CCN(c7ncc(C(=O)NC8C(C)(C)C(Oc9ccc(C#N)c(Cl)c9)C8(C)C)cn7)CC6)c5)ncc34)nn2C2CCOCC2)C1` (stereo not shown) [Compound 139, 2-[4-[2-[4-[8-(5-acetyl-1-tetrahydropyran-4-yl-6,7-dihydro-4H-pyrazolo[4,3-c]pyridin-3-yl)-3-isoquinolyl]pyrazol-1-yl]ethyl]-1-piperidyl]-N-[3-(3-chloro-4-cyano-phenoxy)-2,2,4,4-tetramethyl-cyclobutyl]pyrimidine-5-carboxamide] are > 100 nM and ≤ 0.1 nM.
The corresponding values for `CC(=O)N1CCc2c(c(-c3cccc4cc(-c5cnn(CC6CCN(c7ncc(C(=O)NC8C(C)(C)C(Oc9ccc(C#N)c(Cl)c9)C8(C)C)cn7)CC6)c5)ncc34)nn2C)C1` (stereo not shown) [Compound 215, 2-[4-[[4-[8-(5-acetyl-1-methyl-6,7-dihydro-4H-pyrazolo[4,3-c]pyridin-3-yl)-3-isoquinolyl]pyrazol-1-yl]methyl]-1-piperidyl]-N-[3-(3-chloro-4-cyano-phenoxy)-2,2,4,4-tetramethyl-cyclobutyl]pyrimidine-5-carboxamide] are < 1 nM and 0.1 to 1 nM.
The corresponding values for `COc1cc(OC2C(C)(C)C(NC(=O)c3ccc(N4CC[C@@H](N5CCC(n6nc(N7CCCc8cc(-c9cnn(C)c9)c(C(F)F)cc87)c7c6CCN(C(C)=O)C7)CC5)C4)cc3)C2(C)C)ccc1C#N` (stereo partly drawn) [Compound 337, 4-[(3R)-3-[4-[5-acetyl-3-[7-(difluoromethyl)-6-(1-methylpyrazol-4-yl)-3,4-dihydro-2H-quinolin-1-yl]-6,7-dihydro-4H-pyrazolo[4,3-c]pyridin-1-yl]-1-piperidyl]pyrrolidin-1-yl]-N-[3-(4-cyano-3-methoxy-phenoxy)-2,2,4,4-tetramethyl-cyclobutyl]benzamide] are < 1 nM and 0.1 to 1 nM.
Molecule `CC(=O)N1CCc2c(c(N3CCCc4cc(-c5cnn(C)c5)c(C(F)F)cc43)nn2C2CCN(Cc3cn(CCc4ncc(C(=O)NC5C(C)(C)C(Oc6ccc(C#N)c(Cl)c6)C5(C)C)cn4)nn3)CC2)C1` (stereo not shown) [Compound 15, 2-[2-[4-[[4-[5-acetyl-3-[7-(difluoromethyl)-6-(1-methylpyrazol-4-yl)-3,4-dihydro-2H-quinolin-1-yl]-6,7-dihydro-4H-pyrazolo[4,3-c]pyridin-1-yl]-1-piperidyl]methyl]triazol-1-yl]ethyl]-N-[3-(3-chloro-4-cyano-phenoxy)-2,2,4,4-tetramethyl-cyclobutyl]pyrimidine-5-carboxamide] showed an EC50 in the test with AR / CBP ternary complex of 10 to 100 nM. Besides, the IC50 in the test with VCaP cells was > 100 nM.
On to `CC(=O)N1CCc2c(c(-c3cccc4cc(-c5ccc(CCC6CCN(c7ncc(C(=O)NC8C(C)(C)C(Oc9ccc(C#N)c(Cl)c9)C8(C)C)cn7)CC6)nc5)ncc34)nn2C)C1` (stereo not shown) [Compound 231, 2-[4-[2-[5-[8-(5-acetyl-1-methyl-6,7-dihydro-4H-pyrazolo[4,3-c]pyridin-3-yl)-3-isoquinolyl]-2-pyridyl]ethyl]-1-piperidyl]-N-[3-(3-chloro-4-cyano-phenoxy)-2,2,4,4-tetramethyl-cyclobutyl]pyrimidine-5-carboxamide], for which, in the test with AR / CBP ternary complex, the EC50 lay within 10 to 100 nM. The half-maximal inhibitory concentration (IC50) in the test with VCaP cells was in the range of 0.1 to 1 nM.
The matching figures for `COc1cc(OC2C(C)(C)C(NC(=O)c3ccc(N4CC5(CCC(C6CCC(n7nc(N8CCCc9cc(-c%10cnn(C)c%10)c(C(F)F)cc98)c8c7CCN(C(C)=O)C8)CC6)CC5)C4)cc3)C2(C)C)ccc1C#N` (stereo not shown) [Compound 378, 4-[7-[4-[5-acetyl-3-[7-(difluoromethyl)-6-(1-methylpyrazol-4-yl)-3,4-dihydro-2H-quinolin-1-yl]-6,7-dihydro-4H-pyrazolo[4,3-c]pyridin-1-yl]cyclohexyl]-2-azaspiro[3.5]nonan-2-yl]-N-[3-(4-cyano-3-methoxy-phenoxy)-2,2,4,4-tetramethyl-cyclobutyl]benzamide]: 1 to 10 nM and 1 to 100 nM.
For `CC(=O)N1CCc2c(c(N3CCCc4cc(-c5cnn(C)c5)c(C(F)F)cc43)nn2C2CCC(CN3CCN(c4ncc(C(=O)NC5C(C)(C)C(Oc6ccc(C#N)c(Cl)c6)C5(C)C)cn4)CC3)CC2)C1` (stereo not shown) [Compound 320, 2-[4-[[4-[5-acetyl-3-[7-(difluoromethyl)-6-(1-methylpyrazol-4-yl)-3,4-dihydro-2H-quinolin-1-yl]-6,7-dihydro-4H-pyrazolo[4,3-c]pyridin-1-yl]cyclohexyl]methyl]piperazin-1-yl]-N-[3-(3-chloro-4-cyano-phenoxy)-2,2,4,4-tetramethyl-cyclobutyl]pyrimidine-5-carboxamide], the EC50 with AR / CBP ternary complex was < 1 nM. The molecule further returned an IC50 in the test with VCaP cells of 0.1 to 1 nM.
The matching figures for `CC(=O)N1CCc2c(c(-c3cccc4cc(-c5ccc(C(=O)NCCOCc6ncc(C(=O)NC7C(C)(C)C(Oc8ccc(C#N)c(Cl)c8)C7(C)C)cn6)nc5)ncc34)nn2C2CCOCC2)C1` (stereo not shown) [Compound 76, 2-[2-[[5-[8-(5-acetyl-1-tetrahydropyran-4-yl-6,7-dihydro-4H-pyrazolo[4,3-c]pyridin-3-yl)-3-isoquinolyl]pyridine-2-carbonyl]amino]ethoxymethyl]-N-[3-(3-chloro-4-cyano-phenoxy)-2,2,4,4-tetramethyl-cyclobutyl]pyrimidine-5-carboxamide]: < 1 nM and ≤ 0.1 nM.
